The values below come from patent US10414760B2, “Cytochrome P450 inhibitors and uses thereof” (ANGION BIOMEDICA CORP., priority 2016, dated 2019).

What all share (assay type): biochemical
One assay has as its target T1, CYP17 (Rattus norvegicus, UniProt P11715).
T1 construct: using rat and dog testis microsomes and ELISA kits from commercial vendors; from tissue; host or cells: rat testis microsomes
T1 sequence (P11715 1-507): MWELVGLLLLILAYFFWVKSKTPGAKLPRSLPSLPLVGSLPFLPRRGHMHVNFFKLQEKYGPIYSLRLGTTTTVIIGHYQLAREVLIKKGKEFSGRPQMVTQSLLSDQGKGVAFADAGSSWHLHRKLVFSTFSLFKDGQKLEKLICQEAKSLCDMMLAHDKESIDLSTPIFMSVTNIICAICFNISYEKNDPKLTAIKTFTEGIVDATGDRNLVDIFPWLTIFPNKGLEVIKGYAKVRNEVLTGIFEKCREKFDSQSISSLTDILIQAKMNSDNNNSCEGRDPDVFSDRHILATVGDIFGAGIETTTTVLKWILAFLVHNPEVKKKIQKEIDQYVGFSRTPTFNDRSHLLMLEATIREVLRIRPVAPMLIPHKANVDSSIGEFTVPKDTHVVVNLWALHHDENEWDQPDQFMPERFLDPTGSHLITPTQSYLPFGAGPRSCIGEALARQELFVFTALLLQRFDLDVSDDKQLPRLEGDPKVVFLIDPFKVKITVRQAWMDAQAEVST
The experiment in a line: CYP17 inhibition: 17α hydroxylase and C17,20 lyase activity in testis microsomes, ELISA detection. Particulars: for IC50: which microsome assay (rat or dog testis) not specified. The procedure:
Serum Testosterone and PSA and Tumor Testosterone Analysis. Tumor tissue obtained from mice will be homogenized in phosphate buffer (pH 7.4, 0.1 M) and homogenates centrifuged at 2000 g for 20 min. Testosterone concentrations in the serum and in the clear tissue homogenate supernatant will be determined with the ELISA kit from R&D Systems (Catalog # KGR010). Serum PSA concentrations will be measured using a PSA ELISA kit with a serum dilution according to the manufacturers instructions. • c. Breast cancer. To test the efficacy of compounds embodied herein against breast cancer, nude mice carrying human breast cancer lines that are estrogen receptor and Aromatase positive will be used. Cells will be grown in vitro and 2 million will be inoculated in Matrigel (50:50 volume ratio of cells to Matrigel). Cells will be distributed by s.c. injection at the right and left flanks or at the orthotopic sitest in 6 to 8 week old athymic nude mice (BALB/c strain) or severe combined immunodeficient mice under anesthesia. Animals will be treated with compound for 4 weeks, at which point animals will be sacrificed and collect blood samples and tumor tissue for the determination of serum and tumor estrogen levels. Tumors will be excised and a portion will be fixed in formalin for subsequent histochemical and immuno-histochemical analysis. The remainder will be snap frozen in liquid nitrogen and stored at −80° C. • 12. CYP26 inhibition activity. […] The assay is run in a 100 μL reaction volume and stopped with an equal volume of methanol. […] CYP17 inhibition assay: In vitro assays for CYP17 17α-hydroxylase and C17,20-lyase activity, assays using rat and dog testis microsomes and ELISA kits from commercial vendors for the detection of formed products are employed. […] Assays are also used that determine the activity of 17α-hydroxylase activity using P4 as a substrate and detecting HOP4 as a product (using dog testis microsomes) and the activity of C17,20-lyase by using HOP4 as a substrate and AD as a product (rat testis microsomes). • 14.
CYP17 inhibition. In vitro assays for CYP17 17α hydroxylase and C17,20 lyase activity using rat and dog testis microsomes and ELISA kits from commercial vendors for the detection of formed products were employed. […] Assays were also used that determine the activity of 17α hydroxylase activity using P4 as a substrate and detecting HOP4 as a product (using dog testis microsomes) and the activity of C17,20 lyase by using HOP4 as a substrate and AD as a product (rat testis microsomes).
Background: An ELISA detects its analyte on a solid surface through an enzyme-linked reagent.

For the next assay, the target named is T2, CYP19 (Homo sapiens, UniProt P11511).
T2 construct: purchased BD Gentest 456260
T2 sequence (P11511 1-503): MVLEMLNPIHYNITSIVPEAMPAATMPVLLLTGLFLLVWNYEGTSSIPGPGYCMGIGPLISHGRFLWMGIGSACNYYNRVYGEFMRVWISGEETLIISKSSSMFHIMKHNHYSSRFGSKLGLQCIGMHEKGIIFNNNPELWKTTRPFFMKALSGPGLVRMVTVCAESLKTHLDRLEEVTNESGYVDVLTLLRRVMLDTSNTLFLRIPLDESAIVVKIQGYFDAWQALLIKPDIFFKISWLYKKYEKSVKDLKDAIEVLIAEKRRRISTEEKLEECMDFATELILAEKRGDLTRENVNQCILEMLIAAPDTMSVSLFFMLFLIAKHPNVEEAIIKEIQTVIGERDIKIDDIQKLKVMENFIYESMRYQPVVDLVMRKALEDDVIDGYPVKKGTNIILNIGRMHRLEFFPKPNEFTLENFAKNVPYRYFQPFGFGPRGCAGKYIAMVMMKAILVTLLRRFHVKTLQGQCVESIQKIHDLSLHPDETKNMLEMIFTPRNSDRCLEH
Briefly: CYP19 inhibition: commercially available recombinant enzyme and assay kit. As to the method: (§1) Serum Testosterone and PSA and Tumor Testosterone Analysis. Tumor tissue obtained from mice will be homogenized in phosphate buffer (pH 7.4, 0.1 M) and homogenates centrifuged at 2000 g for 20 min. Testosterone concentrations in the serum and in the clear tissue homogenate supernatant will be determined with the ELISA kit from R&D Systems (Catalog # KGR010). Serum PSA concentrations will be measured using a PSA ELISA kit with a serum dilution according to the manufacturers instructions. • c. Breast cancer. To test the efficacy of compounds embodied herein against breast cancer, nude mice carrying human breast cancer lines that are estrogen receptor and Aromatase positive will be used. Cells will be grown in vitro and 2 million will be inoculated in Matrigel (50:50 volume ratio of cells to Matrigel). Cells will be distributed by s.c. injection at the right and left flanks or at the orthotopic sitest in 6 to 8 week old athymic nude mice (BALB/c strain) or severe combined immunodeficient mice under anesthesia. Animals will be treated with compound for 4 weeks, at which point animals will be sacrificed and collect blood samples and tumor tissue for the determination of serum and tumor estrogen levels. Tumors will be excised and a portion will be fixed in formalin for subsequent histochemical and immuno-histochemical analysis. The remainder will be snap frozen in liquid nitrogen and stored at −80° C. • 12. CYP26 inhibition activity. A substrate depletion assay for ATRA metabolism in mouse microsomes is used. […] The assay is run in a 100 μL reaction volume and stopped with an equal volume of methanol. […] CYP17 inhibition assay: In vitro assays for CYP17 17α-hydroxylase and C17,20-lyase activity, assays using rat and dog testis microsomes and ELISA kits from commercial vendors for the detection of formed products are employed. Incubation of rat testis microsomes with the substrate progesterone (P4) results, through the CYP17 17α-hydroxylase and C17,20-lyase activities, in a marked production of androstenedione (AD) in a time and enzyme-concentration dependent manner. […] In another control, microsomes isolated from rat livers, which are known to express very little or no CYP17, are shown to be devoid of this activity. Assays are also used that determine the activity of 17α-hydroxylase activity using P4 as a substrate and detecting HOP4 as a product (using dog testis microsomes) and the activity of C17,20-lyase by using HOP4 as a substrate and AD as a product (rat testis microsomes). • 14. CYP19 inhibition assay: For in vitro assays of CYP19 aromatase activity, commercially available CYP19 enzyme preparations (e.g. BD Gentest Supersomes Catalog #456260) and assay kits (e.g. BD Gentest Catalog #459520) are employed according to the manufacturers instructions.
Selectivity for other P450 enzymes. To assess the selectivity of compounds embodied herein, activity was evaluated first against CYP3A4 and CYP19 using commercially available recombinant enzymes and assay kits. To calculate a selectivity factor, the IC50 for a particular P450 enzyme was divided by the IC50 in the CYP17 combination assay.

In another assay the target is T3, CYP26 (Mus musculus, UniProt O55127).
T3 construct: tissue Xenotech; host or cells: liver microsomes of ATRA-treated mice
T3 sequence (O55127 1-497): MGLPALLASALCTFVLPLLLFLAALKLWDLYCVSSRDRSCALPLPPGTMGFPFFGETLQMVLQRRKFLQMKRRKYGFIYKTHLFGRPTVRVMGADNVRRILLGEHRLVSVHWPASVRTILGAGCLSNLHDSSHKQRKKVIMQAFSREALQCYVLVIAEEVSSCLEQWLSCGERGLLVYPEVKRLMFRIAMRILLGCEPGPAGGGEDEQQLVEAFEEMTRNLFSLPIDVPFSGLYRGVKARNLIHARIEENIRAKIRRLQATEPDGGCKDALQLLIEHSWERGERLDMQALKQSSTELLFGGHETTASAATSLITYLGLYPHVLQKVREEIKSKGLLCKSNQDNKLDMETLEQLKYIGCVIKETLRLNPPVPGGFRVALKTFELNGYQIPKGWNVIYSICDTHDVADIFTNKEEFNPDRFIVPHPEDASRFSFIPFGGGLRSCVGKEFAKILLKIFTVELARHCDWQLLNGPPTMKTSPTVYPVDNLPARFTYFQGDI
Briefly: CYP26 inhibition: substrate depletion assay for ATRA metabolism in mouse microsomes. As to the method:
as §1
CYP26 inhibition. […] The assay was run in a 100 μL reaction volume and stopped with an equal volume of methanol. […] Other compounds of formula (I) are similarly potent, for example with an IC50 of 1.6 nM.

Regarding `CCC(C(c1ccc2nc(NC(N)=O)sc2c1)n1ccnc1)N(C)C` (stereo not shown) [Example 2, 1-(6-(2-(Dimethylamino)-1-(1H-imidazol-1-yl)butyl)benzo[d]thiazol-2-yl)urea], the IC50 is below 5000 nM against CYP17 and below 1000 nM on CYP19. The like results for `CCC(C(c1ccc2nc(NC(C)=O)sc2c1)n1ccnc1)N(C)CC` (stereo not shown) [Example 9, N-(6-(2-(Ethyl(methyl)amino)-1-(1H-imidazol-1-yl)butyl)benzo[d]thiazol-2-yl)acetamide] were, in that order, below 5000 nM and below 1000 nM. `CCC(C(c1ccc2nc(Cl)sc2c1)n1ccnc1)N(C)CC` (stereo not shown) [Example 10, 1-(2-Chlorobenzo[d]thiazol-6-yl)-N-ethyl-1-(1H-imidazol-1-yl)-N-methylbutan-2-amine]: the IC50 was below 5000 nM against CYP17 and below 1000 nM at CYP19.

Turning to `CCC(C(c1ccc2nc(C(=O)OC)sc2c1)n1ccnc1)N(C)C` (stereo not shown) [Example 12, Methyl 6-(2-(dimethylamino)-1-(1H-imidazol-1-yl)butyl)benzo[d]thiazole-2-carboxylate], the IC50 is below 5000 nM against CYP17 and below 1000 nM at CYP19.

As for `CCC(C(c1ccc2nc(C(=N)OC)sc2c1)n1ccnc1)N(C)C` (stereo not shown) [Example 13, Methyl 6-(2-(dimethylamino)-1-(1H-imidazol-1-yl)butyl)benzo[d]thiazole-2-carbimidate], the IC50 is below 5000 nM against CYP17 and below 1000 nM on CYP19.

Consider `CCC(C(c1ccc2nc(C(N)=O)sc2c1)n1ccnc1)N(C)C` (stereo not shown) [Example 14, 6-(2-(Dimethylamino)-1-(1H-imidazol-1-yl)butyl)benzo[d]thiazole-2-carboxamide], for which the figures for the IC50 against CYP17 and at CYP19 were below 5000 nM and below 1000 nM, respectively. The like results for `CCC(C(c1ccc2ncsc2c1)n1ccnc1)N(C)C` (stereo not shown) [Example 15, 1-(Benzo[d]thiazol-6-yl)-1-(1H-imidazol-1-yl)-N,N-dimethylbutan-2-amine] were, in that order, below 5000 nM and below 1000 nM. Taken in the same sequence, the figures for `CCC(CC)C(c1ccc2nc(N)sc2c1)n1ccnc1` (stereo not shown) [Example 27, 6-(2-Ethyl-1-(1H-imidazol-1-yl)butyl)benzo[d]thiazol-2-amine] were below 5000 nM and below 1000 nM. As to `CCC(C(c1ccc2nc(-c3cc(C(=O)O)cc(C(F)(F)F)c3)sc2c1)n1ccnc1)N(C)C` (stereo not shown) [Example 70, 3-(6-(2-(Dimethylamino)-1-(1H-imidazol-1-yl)butyl)benzo[d]thiazol-2-yl)-5-(trifluoromethyl)benzoic acid], the IC50 against CYP26 was below 1000 nM. Still for that read-out and setting: in the case of `CCC(C(c1ccc2nc(-c3cccc(-c4nn[nH]n4)c3)sc2c1)n1ccnc1)N(C)C` (stereo not shown) [Example 71, 1-(2-(3-(2H-Tetrazol-5-yl)phenyl)benzo[d]thiazol-6-yl)-1-(1H-imidazol-1-yl)-N,N-dimethylbutan-2-amine] it was below 1000 nM. On the same count and under the same terms, the figure for `CCC(C(c1ccc2nc(-c3ccc(-c4nn[nH]n4)cc3)sc2c1)n1ccnc1)N(C)C` (stereo not shown) [Example 72, 1-(2-(4-(2H-Tetrazol-5-yl)phenyl)benzo[d]thiazol-6-yl)-1-(1H-imidazol-1-yl)-N,N-dimethylbutan-2-amine] is below 1000 nM; for `CCC(CC)C(c1ccc2nc(-c3ccc(Cl)c(C(=O)OC)c3)sc2c1)n1ccnc1` (stereo not shown) [Example 73, Methyl 2-chloro-5-(6-(2-ethyl-1-(1H-imidazol-1-yl)butyl)benzo[d]thiazol-2-yl)benzoate] it is below 1000 nM; for `CCC(CC)C(c1ccc2nc(-c3ccc(Cl)c(C(=O)O)c3)sc2c1)n1ccnc1` (stereo not shown) [Example 74, 2-Chloro-5-(6-(2-ethyl-1-(1H-imidazol-1-yl)butyl)benzo[d]thiazol-2-yl)benzoic acid] it is below 1000 nM. With `CC(=O)O[C@H]1CC[C@@]2(C)C(=CC[C@@H]3[C@@H]2CC[C@]2(C)C(c4cccnc4)=CC[C@@H]32)C1` [abiraterone acetate, reference compound], at CYP17 (rat testis microsomes, 17α hydroxylase and C17,20 lyase activities), the “Inhibition of androstenedione (AD) production from progesterone (P4)” value is “completely inhibited”.

By IC50 is commonly meant the concentration at which inhibition is half-maximal.
